In patent publication US5001155A, “β-ionone derivative as antifungal agent” (University of Kentucky Research Foundation, priority 1989, dated 1991):
In brackets after ≈: the same amount, converted by molar mass.

Test system: P. tabacina conidia
Assay: not given
Details: Phytochemistry 1972, vol. 11, pp. 2055-2063; cited from earlier work

SMILES	inhibition of germination
CC(=O)/C=C/C1=C(C)CC(OC(=O)C(C)C)CC1(C)C (stereo not drawn) [Quieson, 3-isobutyroyloxy-β-ionone, reference compound]	an inhibitor of the germination of P. tabacina conidia

Test system: Peronospora tabacina sporangia
Assay: Inhibition of Sporangial Germination, Variant II (test 3.12)
Format: cell-based
Details: 1% water agar, 10^6 s/ml, 18° C., 16 hours, read-out: ED50 (the source's name)
Procedure: 3.12. Variant II In another in vitro test, the substances (10^2 -10^-8 ppm) were added to 1% water agar and poured into petri dishes. After cooling, the media were inoculated with 100 μl of a suspension of sporangia (10^6 s/ml) and incubated at 18° C. during 16 hours. The germinated sporangia were counted under the microscope.

SMILES	IC50
CC(=O)/C=C/C1=C(C)C[C@@H](OC(=O)C(C)(C)C)CC1(C)C [3(R)-pivaloyloxy-β-ionone]	0.001 ng/mL (≈ 0.00342 nM)
CC(=O)/C=C/C1=C(C)CC(OC(=O)C(C)C)CC1(C)C (stereo not drawn) [Quieson, 3-isobutyroyloxy-β-ionone, reference compound]	0.4 ng/mL (≈ 1.44 nM)
CCCCCC(=O)O[C@@H]1CC(C)=C(/C=C/C(C)=O)C(C)(C)C1 [3(R)-n-hexanoyloxy-β-ionone]	0.05 ng/mL (≈ 0.163 nM)
COCC(=O)O[C@@H]1CC(C)=C(/C=C/C(C)=O)C(C)(C)C1 [3(R)-methoxyacetoxy-β-ionone]	8e-05 ng/mL (≈ 0.000285 nM)
CCOCC(=O)O[C@@H]1CC(C)=C(/C=C/C(C)=O)C(C)(C)C1 [3(R)-ethoxyacetoxy-β-ionone]	0.006 ng/mL (≈ 0.0204 nM)
CCCC(=O)O[C@@H]1CC(C)=C(/C=C/C(C)=O)C(C)(C)C1 [3(R)-n-butyroyloxy-β-ionone, 3(R)-butyroyloxy-β-ionone]	2e-05 ng/mL (≈ 7.18e-05 nM)
